# Measured values: the OPERA property sets (Mansouri et al. 2018)
# Conditions: not given
SMILES,boiling point,log10 vapour pressure (mmHg),melting point,log10 Koc (L/kg),ready biodegradability,log10 Koa
C/C=C(\C)C(=O)O,198 °C,-0.875,64.5 °C,,,
O=[N+]([O-])c1ccc(F)cc1,205 °C,,21 °C,,,
C/C(Cl)=C/C(=O)O,195 °C,,61 °C,,,
CCOC(=O)Cc1ccccc1,227 °C,,-29.4 °C,1.89,,
CNC(=O)Oc1ccc(SC)c(C)c1,,,118 °C,,,
Fc1cc(F)c(F)c(-c2c(F)c(F)cc(F)c2F)c1F,,,85 °C,,,
CCC(=O)O[C@H]([C@H](C)[C@H]1O[C@@]2(CC[C@@](C)([C@H]3CC[C@@](C)(C4O[C@@H]([C@H]5O[C@@](O)(CO)[C@H](C)C[C@@H]5C)C[C@@H]4C)O3)O2)C[C@H](O)[C@H]1C)[C@@H](C)C(=O)O (some centres undefined),,,152 °C,,,
O=S(=O)(Cl)Cc1ccccc1,,,,,readily biodegradable,
O=Cc1cccc(Oc2ccccc2)c1,,,,,not readily biodegradable,
Cc1cnc(NS(=O)(=O)c2ccc(N)cc2)nc1,,,262 °C,,,
Nc1c(Cl)cccc1C(=O)O,,,190 °C,,,
CCn1ccc2ccccc21,252 °C,,105 °C,,,
Cc1cccc(OCC(O)CNC(C)C)c1 (centres undefined),,,76 °C,,,
CCCC(=O)NN,,,45.5 °C,,,
CCOC(=O)Cc1c[nH]c2ccccc12,,,44.5 °C,,,
CN(C)C(=O)COC(=O)c1ccccc1,,,81.5 °C,,,
C[C@@H]1C[C@H](C)CC(C)(C)C1,152 °C,,,,,
Cc1csc(NS(=O)(=O)c2ccc(N)cc2)n1,,,237 °C,,,
NS(=O)(=O)c1ccc(SCCCO)cc1,,,117 °C,,,
O=C(OC[C@H]1O[C@](O)(COC(=O)c2cccnc2)[C@@H](OC(=O)c2cccnc2)[C@@H]1OC(=O)c1cccnc1)c1cccnc1,,,141 °C,,,
COc1ccc(N=C=S)cc1,280 °C,,18 °C,,,
C=CCCC(C)C,85.3 °C,,,,,

SMILES,boiling point,log10 vapour pressure (mmHg),melting point,log10 Koc (L/kg),ready biodegradability,log10 Koa
CC(C)(C)N=C=O,,,85.5 °C,,,
CCCCCCCC1CCCCC1,244 °C,-1.4,-30 °C,,,
C#CCCCCCCCCCCCCC,268 °C,,10 °C,,,
COc1cc(C)oc(=O)c1,,,86 °C,,,
CC1(C)[C@H](C(=O)O[C@H](C#N)c2cccc(Oc3ccccc3)c2)[C@@H]1C=C(Br)Br,,-7.82,100 °C,,,
C[C@]12CC[C@H](O)CC1=CC[C@@H]1[C@@H]2CC[C@@]2(C)[C@H]1CC[C@]2(C)O,,,206 °C,,,
CC(C)(C)c1ccccc1,169 °C,0.343,-57.8 °C,,readily biodegradable,
CC(C(=O)O)c1ccc(N2CC=CC2)c(Cl)c1 (centres undefined),,,99 °C,,,
Oc1nc2ccccc2s1,360 °C,,139 °C,,,
O[C@H]1C=CCCC1,164 °C,,,,,
CCCCCCCCCCC(C)C(=O)O (centres undefined),,,22 °C,,,
FC(F)(F)CCBr,63.5 °C,,,,,
CC/C=C\C/C=C\C/C=C\CCCCCCCC(=O)OC,,-5.29,,,,
O=C(Nc1ccc(Cl)c(Cl)c1)c1cc(Cl)ccc1O,,,247 °C,,,
Clc1cc(Cl)c2cccc(Cl)c2c1Cl,,,,,,8.41
Nc1cc(Cl)ccc1Cl,251 °C,,50 °C,,not readily biodegradable,
CCCCCCCCCCCCc1ccc(N)cc1,,,40.5 °C,,readily biodegradable,
C=C(C)CCC(C)=O,150 °C,,,,,
O=C1OC(=O)c2cccc3cccc1c23,,,270 °C,,,
CC(C)=CC(=O)O,197 °C,,69.5 °C,,,
CC(=O)c1ccc(C)s1,232 °C,,27.5 °C,,,
CCCCCCCCCCCCCCCCCC(=O)OCCCCCCCCCCCCCCCC,,,57 °C,,,

SMILES,boiling point,log10 vapour pressure (mmHg),melting point,log10 Koc (L/kg),ready biodegradability,log10 Koa
Clc1ccc(Cn2cncn2)cc1Cl,,,46.5 °C,,,
BrCI,140 °C,,,,,
CCC(=O)O[C@]1(C(=O)CCl)[C@@H](C)C[C@H]2[C@@H]3CCC4=CC(=O)C=C[C@]4(C)[C@@]3(F)[C@@H](O)C[C@@]21C,,,196 °C,,,
COC(=O)c1cccnc1,204 °C,,42.5 °C,,,
CCC(Br)C(=O)Cl (centres undefined),151 °C,,,,,
O=C(O)C1CCCN1 (racemic),,,205 °C,,,
O=[N+]([O-])c1ccc(Cl)c(Cl)c1Cl,,,55.5 °C,,,
C[Si](C)(C)O[Si](C)(C)O[Si](C)(C)O[Si](C)(C)O[Si](C)(C)O[Si](C)(C)O[Si](C)(C)O[Si](C)(C)C,,-2.5,,,,
Cc1cc(Cl)cc2c1C(=O)/C(=C1/Sc3cc(Cl)cc(C)c3C1=O)S2,,-13.5,,,,
CCCCCCCC(=O)OCCCCC,260 °C,,-34.8 °C,,,
Cc1cccc2c1ccc1c3ccccc3ccc21,,,256 °C,,,
Nc1cc2ccccc2cc1C(=O)O,,,216 °C,,,
O=C1CCCCCCCCCCC(=O)OCCO1,,,18 °C,,,
CN(C)CCC=C1c2ccccc2CCc2ccccc21,,,196 °C,,,
Oc1ccccc1Br,194 °C,,5.6 °C,,not readily biodegradable,
OCc1cc(Br)ccc1O,,,113 °C,,,
COCCOc1ccccc1S(=O)(=O)N=C(O)N=c1nc(OC)[nH]c(OC)n1,,,130 °C,,,
O=c1[nH]cc(N(CCCl)CCCl)c(=O)[nH]1,,,,1.46,,
CC(C)(N)c1ccccc1,196 °C,,,,,
CCOc1ccc(OCC)cc1,246 °C,,72 °C,,,
O=CN1CCCCC1,222 °C,,,,,
O=Cc1ccc([N+](=O)[O-])o1,228 °C,,35.5 °C,,readily biodegradable,

SMILES,boiling point,log10 vapour pressure (mmHg),melting point,log10 Koc (L/kg),ready biodegradability,log10 Koa
CC(=O)c1ccc(C#N)cc1,,,57.5 °C,,,
O=C(NO)c1ccccc1,,,128 °C,,,
S=C(S)N1CCNCC1,,,228 °C,,,
CN(C)N=Nc1nc[nH]c1C(N)=O,,,205 °C,,,
Oc1ccc2ccccc2c1/N=N/c1ccccc1,,,134 °C,3.58,,
O=CC12CC=CCC1C1CC=CCC1O2 (centres undefined),307 °C,,-80 °C,,,
CCCSC(C)C,132 °C,,,,,
CCC(C)CC(O)CC (centres undefined),172 °C,,-91.2 °C,,,
O=C(CCCN1CCC(O)(c2ccc(Br)cc2)CC1)c1ccc(F)cc1,,,155 °C,,,
CCCC(O)C(C)C (centres undefined),141 °C,0.129,,,,
CC(C)CC1Nc2cc(Cl)c(S(N)(=O)=O)cc2S(=O)(=O)N1 (centres undefined),,,222 °C,,,
Cc1cc(O)c(Cl)cc1Cl,234 °C,,73 °C,,,
CC1CCCCC1NC(=O)Nc1ccccc1 (centres undefined),,-8.4,136 °C,2.31,,
O=C(Cl)OCc1ccccc1,152 °C,-2.51,,,,
CC=CC(=O)CC,138 °C,,,,,
CCOC(=O)C(O)c1ccccc1 (centres undefined),,,35 °C,,,
Cc1ccc2cccc(O)c2n1,267 °C,,73.8 °C,,,
COc1cc([C@@H]2c3cc4c(cc3C(O[C@@H]3O[C@@H]5COC(c6cccs6)O[C@H]5[C@H](O)[C@H]3O)C3COC(=O)[C@@H]32)OCO4)cc(OC)c1O (some centres undefined),,,244 °C,,,
CCCC(C)(C)C(C)=O,149 °C,,,,,
c1ccc(C2=N[C@H](c3ccccc3)[C@@H](c3ccccc3)N2)cc1,,,134 °C,,,
CC1(C)OC[C@@H]2O[C@@]3(C(=O)O)OC(C)(C)O[C@H]3[C@@H]2O1,,,74 °C,,,

# Same assay, conditions: fish
SMILES,log10 biotransformation half-life (days),log10 BCF
Clc1cc(Cl)c(-c2cc(Cl)c(Cl)c(Cl)c2Cl)c(Cl)c1,2.51,
CCCCCCCC1CCCCC1,0.17,
CC1(C)[C@H](C(=O)O[C@H](C#N)c2cccc(Oc3ccccc3)c2)[C@@H]1C=C(Br)Br,0.51,2.51
Nc1cc(Cl)ccc1Cl,-1.13,1.18
O=[N+]([O-])c1ccc(Cl)c(Cl)c1Cl,-0.19,2.2
Oc1ccccc1Br,-0.24,1.52
